Assay results taken from US20250145665A1, “MACROCYCLIC PEPTIDES USEFUL AS MODULATORS OF TNF ALPHA” (Bristol-Myers Squibb Company, priority 2023, published 2025).
Where two headings read alike, the source gives them in different places. Starred links: 1 amine or outer side, 2 acyl side, 3 side chain; linkers in the order of their positions; H or OH if unused. Positions of bridges follow the written chain, without caps; N, C: chain ends. Non-standard residues stand in square brackets, D forms with d. Residues, ends and D or L forms follow the SMILES beside them. *: point of attachment. X5 = Cn1nc(C(=O)Nc2ccc(-c3ccc(C[C@H](N[*:1])C(=O)[*:2])cc3)cc2)c2ccccc21; dArg(ω-(2S)-2,3-diOHpropyl) = N=C(NCCC[C@@H](N)C(=O)O)NC[C@H](O)CO; Bip(4'-NH) = O=C([C@H](Cc1ccc(-c2ccc(N[*:3])cc2)cc1)N[*:1])[*:2]; Indazole3carbonyl(1-CH2COOH) = O=C(O)Cn1nc(C(=O)*)c2ccccc21; Bip(4'-COOH) = N[C@@H](Cc1ccc(-c2ccc(C(=O)O)cc2)cc1)C(=O)O; Bip(4'-NHAc) = CC(=O)Nc1ccc(-c2ccc(C[C@H](N)C(=O)O)cc2)cc1; Ala(morpholin-4-yl) = N[C@@H](CN1CCOCC1)C(=O)O; Phe(3-CONH2) = NC(=O)c1cccc(C[C@H](N)C(=O)O)c1; Bip = N[C@@H](Cc1ccc(-c2ccccc2)cc1)C(=O)O; Hyp = O=C(O)[C@@H]1C[C@@H](O)CN1; 2Pal = N[C@@H](Cc1ccccn1)C(=O)O; Tic = O=C(O)[C@@H]1Cc2ccccc2CN1; Cha = N[C@@H](CC1CCCCC1)C(=O)O; Chg = N[C@H](C(=O)O)C1CCCCC1; Tle = CC(C)(C)[C@H](N)C(=O)O; Sar = CNCC(=O)O

Target: TNFα (Homo sapiens, UniProt P01375)
Sequence (P01375 77-233 limits assumed): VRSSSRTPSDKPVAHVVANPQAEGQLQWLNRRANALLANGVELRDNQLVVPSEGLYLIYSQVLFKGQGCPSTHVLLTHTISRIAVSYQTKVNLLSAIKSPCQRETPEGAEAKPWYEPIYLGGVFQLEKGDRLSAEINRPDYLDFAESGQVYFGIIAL
Assay: TNF-Induced HEK-Blue Assay
Type: cell-based
[1] = HEK-Blue-CD40L cells, NF-kB-driven secreted alkaline phosphatase reporter, TNFα 0.5 ng/ml, 18 h, read-out: TNF induced HEK-Blue assay IC50 value

| IC50 [1] [µM] | Structure (SMILES) | IC50 [µM] |
| --- | --- | --- |
| 0.05 to 0.2 | CC(C)C[C@@H]1NC(=O)[C@H](Cc2ccc(O)cc2)NC(=O)[C@H](C(C)C)NC(=O)[C@@H]2Cc3ccccc3CN2C(=O)[C@H](C(C)C)NC(=O)[C@@H](CCCNC(=N)N)NC(=O)[C@H](CC(=O)O)NC(=O)[C@@H]2CCCN2C(=O)CN(C)C(=O)[C@H](Cc2ccc(-c3ccccc3)cc2)NC(=O)[C@H](Cc2ccc(-c3ccccc3)cc2)NC(=O)[C@H](CN2CCOCC2)NC(=O)CSC[C@@H](C(=O)NCC(N)=O)NC1=O [Example 81] ({CH2CO}-[Ala(morpholin-4-yl)][Bip][Bip][Sar]PD[dR]V[Tic]VYLCG-NH2; thioether N-13) | – |
| 0.05 to 0.2 | CC(C)C[C@@H]1NC(=O)[C@H](CCCNC(=N)N)NC(=O)[C@H](C2CCCCC2)NC(=O)[C@@H]2CCCN2C(=O)[C@H](C(C)C)NC(=O)[C@@H](CCCNC(=N)N)NC(=O)[C@H](CC(=O)O)NC(=O)[C@H](Cc2cnc[nH]2)NC(=O)CN(C)C(=O)[C@H](Cc2ccc(-c3ccccc3)cc2)NC(=O)[C@H](Cc2ccc(-c3ccccc3)cc2)NC(=O)[C@H](CN2CCOCC2)NC(=O)CSC[C@@H](C(=O)NCC(N)=O)NC1=O [Example 230] ({CH2CO}-[Ala(morpholin-4-yl)][Bip][Bip][Sar]HD[dR]VP[Chg]RLCG-NH2; thioether N-13) | – |
| 0.2 to 2 | CC(C)C[C@@H]1NC(=O)[C@H](CCCNC(=N)N)NC(=O)[C@H](CC(C)C)NC(=O)[C@@H]2CCCN2C(=O)[C@H](C(C)C)NC(=O)[C@H](CCCNC(=N)N)NC(=O)[C@H](CC(=O)O)NC(=O)[C@@H]2CCCN2C(=O)CN(C)C(=O)[C@H](Cc2ccc(-c3ccccc3)cc2)NC(=O)[C@H](Cc2ccc(-c3ccccc3)cc2)NC(=O)[C@H](Cc2ccccc2)NC(=O)CSC[C@@H](C(=O)NCC(N)=O)NC1=O [Example 21] ({CH2CO}-F[Bip][Bip][Sar]PDRVPLRLCG-NH2; thioether N-13) | – |
| 0.2 to 2 | CC(C)C[C@@H]1NC(=O)[C@H](CCCNC(=N)N)NC(=O)[C@H](C(C)C)NC(=O)CNC(=O)[C@H](C(C)C)NC(=O)[C@H](CCCNC(=N)N)NC(=O)[C@H](CC(=O)O)NC(=O)[C@H](Cc2ccc(O)cc2)NC(=O)CN(C)C(=O)[C@H](Cc2ccc(-c3ccccc3)cc2)NC(=O)[C@H](Cc2ccc(-c3ccccc3)cc2)NC(=O)[C@H](CN2CCOCC2)NC(=O)CSC[C@@H](C(=O)NCC(N)=O)NC1=O [Example 138] ({CH2CO}-[Ala(morpholin-4-yl)][Bip][Bip][Sar]YDRVGVRLCG-NH2; thioether N-13) | – |

Second part, the compound before the results:

| Structure (SMILES) | IC50 [1] [µM] | IC50 [µM] |
| --- | --- | --- |
| CC(C)C[C@@H]1NC(=O)CSC[C@@H](C(=O)NCC(N)=O)NC(=O)[C@H](CC(C)C)NC(=O)[C@H](CCCNC(=N)N)NC(=O)[C@H](C(C)C)NC(=O)[C@@H]2CCCN2C(=O)[C@H](C(C)C)NC(=O)[C@H](CCCNC(=N)N)NC(=O)[C@H](CC(=O)O)NC(=O)[C@@H]2CCCN2C(=O)CN(C)C(=O)[C@H](Cc2ccc(-c3ccccc3)cc2)NC(=O)[C@H](Cc2ccc(-c3ccccc3)cc2)NC1=O [Example 8] ({CH2CO}-L[Bip][Bip][Sar]PDRVPVRLCG-NH2; thioether N-13) | 0.2 to 2 | – |
| CC[C@H](C)[C@@H]1NC(=O)[C@@H](CCCNC(=N)N)NC(=O)[C@H](CC(=O)O)NC(=O)[C@H](Cc2ccccn2)NC(=O)CN(C)C(=O)[C@H](Cc2ccc(-c3ccc(NC(C)=O)cc3)cc2)NC(=O)[C@H](Cc2ccc(-c3ccccc3)cc2)NC(=O)[C@H](CN2CCOCC2)NC(=O)CSC[C@@H](C(=O)NCC(N)=O)NC(=O)[C@H](CC(C)C)NC(=O)[C@H](Cc2cnc[nH]2)NC(=O)[C@H](C(C)C)NC(=O)[C@@H]2CCCN2C1=O [Example 522] ({CH2CO}-[Ala(morpholin-4-yl)][Bip][Bip(4'-NHAc)][Sar][2Pal]D[dR]IPVHLCG-NH2; thioether N-13) | < 0.05 | – |
| CC(=O)Nc1ccc(-c2ccc(C[C@@H]3NC(=O)[C@H](Cc4ccc(-c5ccccc5)cc4)NC(=O)[C@H](CN4CCOCC4)NC(=O)CSC[C@@H](C(=O)NCC(N)=O)NC(=O)[C@H](CC(C)C)NC(=O)[C@H](Cc4ccccn4)NC(=O)[C@H](C(C)C)NC(=O)[C@@H]4CCCN4C(=O)[C@H](C(C)C)NC(=O)[C@@H](CCCNC(=N)N)NC(=O)[C@H](CC(=O)O)NC(=O)[C@H](Cc4ccccn4)NC(=O)CN(C)C3=O)cc2)cc1 [Example 172] ({CH2CO}-[Ala(morpholin-4-yl)][Bip][Bip(4'-NHAc)][Sar][2Pal]D[dR]VPV[2Pal]LCG-NH2; thioether N-13) | < 0.05 | – |
| CC(C)C[C@@H]1NC(=O)[C@H](Cc2ccc(O)cc2)NC(=O)[C@H](C(C)C)NC(=O)[C@@H]2CCCN2C(=O)[C@H](C(C)C)NC(=O)[C@@H](CCCNC(=N)N)NC(=O)[C@H](CC(=O)O)NC(=O)[C@H](Cc2ccc(O)cc2)NC(=O)CN(C)C(=O)[C@H](Cc2ccc(-c3ccccc3)cc2)NC(=O)[C@H](Cc2ccc(-c3ccc(C(=O)O)cc3)cc2)NC(=O)[C@H](CC2CCCCC2)NC(=O)CSC[C@@H](C(=O)NCC(N)=O)NC1=O [Example 187] ({CH2CO}-[Cha][Bip(4'-COOH)][Bip][Sar]YD[dR]VPVYLCG-NH2; thioether N-13) | 0.05 to 0.2 | – |
| CC(C)C[C@@H]1NC(=O)[C@H](Cc2cccc(C(N)=O)c2)NC(=O)[C@H](C(C)C)NC(=O)[C@@H]2CCCN2C(=O)[C@H](C(C)C)NC(=O)[C@@H](CCCNC(=N)NC[C@H](O)CO)NC(=O)[C@H](CC(=O)O)NC(=O)[C@H](Cc2ccc(O)cc2)NC(=O)CN(C)C(=O)[C@H](Cc2ccc(-c3ccc(NC(=O)c4nn(CC(=O)O)c5ccccc45)cc3)cc2)NC(=O)[C@H](Cc2ccc(-c3ccccc3)cc2)NC(=O)[C@H](CN2CCOCC2)NC(=O)CSC[C@@H](C(=O)NCC(N)=O)NC1=O [Example 546] ({CH2CO}-[Ala(morpholin-4-yl)][Bip][Bip(4'-NH)](Indazole3carbonyl(1-CH2COOH))[Sar]YD[dArg(ω-(2S)-2,3-diOHpropyl)]VPV[Phe(3-CONH2)]LCG-NH2; thioether N-13) | – | < 0.05 |
| CC[C@H](C)[C@@H]1NC(=O)[C@@H]2CCCN2C(=O)[C@H]([C@@H](C)CC)NC(=O)[C@@H](CCCNC(=N)N)NC(=O)[C@H](CC(=O)O)NC(=O)[C@H](Cc2ccccn2)NC(=O)CN(C)C(=O)[C@H](Cc2ccc(-c3ccc(NC(=O)c4nn(C)c5ccccc45)cc3)cc2)NC(=O)[C@H](Cc2ccc(-c3ccccc3)cc2)NC(=O)[C@H](C(C)(C)C)NC(=O)CSC[C@@H](C(=O)NCC(N)=O)NC(=O)[C@H](CC(C)C)NC(=O)[C@H](Cc2cccc(C(N)=O)c2)NC1=O [Example 335] ({CH2CO}-[Tle][Bip][X5][Sar][2Pal]D[dR]IPI[Phe(3-CONH2)]LCG-NH2; thioether N-13) | 0.05 to 0.2 | – |
| CC(C)C[C@@H]1NC(=O)[C@H](Cc2ccc(O)cc2)NC(=O)[C@H](C(C)C)NC(=O)[C@@H]2C[C@@H](O)CN2C(=O)[C@H](C(C)C)NC(=O)[C@@H](CCCNC(=N)N)NC(=O)[C@H](CC(=O)O)NC(=O)[C@@H]2CCCN2C(=O)CN(C)C(=O)[C@H](Cc2ccc(-c3ccccc3)cc2)NC(=O)[C@H](Cc2ccc(-c3ccccc3)cc2)NC(=O)[C@H](CN2CCOCC2)NC(=O)CSC[C@@H](C(=O)NCC(N)=O)NC1=O [Example 80] ({CH2CO}-[Ala(morpholin-4-yl)][Bip][Bip][Sar]PD[dR]V[Hyp]VYLCG-NH2; thioether N-13) | 0.2 to 2 | – |
